PubChem BioAssay (NCI)
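Growth conditions: 96-well plates. Treatment: test compound, 48 hours, 5 concentrations. Analysis: linear interpolation between bracketing concentrations; unreached endpoints set to highest concentration. TGI: concentration producing complete growth inhibition.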

System: RXF 393 renal
Assay: DTP human tumour cell line panel, 48 h

| Structure (SMILES) | TGI [µM] |
| --- | --- |
| COc1ccc(CCN2CCN(CCc3ccc(OC)cc3)CC2)cc1 | 95.1 |
| O=c1[nH]c(Nc2nc3ccccc3[nH]2)nc2c1CCC2 | > 100 |
| CCOP(=O)(O)C1C(CO)OC(n2ccc(=O)[nH]c2=O)C1O (stereo unspecified) | > 100 |
| NC(=S)Nc1ccc(S(=O)(=O)Nc2ccc(S(N)(=O)=O)cc2)cc1 | > 100 |
| O=C1NCCCNCCCNCCCNC(=O)c2cccc1n2 | > 100 |
| CN(C)/C=N/S(=O)(=O)c1nn2c(C=O)c(-c3ccc(Cl)cc3)nc2s1 | 3.37 |
| COc1ccc(C2=Nn3c(nnc(Cc4ccc(Cl)cc4)c3=O)SC2)cc1 | > 100 |
| COC1(OC)CC(CO)(CNc2nc(N)nc(Cl)c2/C=N\O)C1 | > 100 |
| Cc1ccc2c(c1)C1(C)OC(C=CC1=O)O2 (stereo unspecified) | 1.56 |

System: HCC-2998 colon
Assay: DTP human tumour cell line panel, 48 h

| Structure (SMILES) | TGI [µM] |
| --- | --- |
| C=C(CC[C@@H](C)[C@H]1CC[C@@]2(C)C3=C(CC[C@]12C)[C@@]1(C)CC[C@H](O)[C@@H](C)C1CC3)C(C)C (stereo partly specified) | 2.7 |
| CC(=O)OCCOCn1cnc2c(Cl)nc(Cl)nc21 | 25.6 |
| O=C1O/C(=C(/Cl)c2cccc3ccccc23)c2ccccc21 | > 100 |
| COc1ccc(N2C(=O)c3cc(C)cnc3S2(=O)=O)cc1 | > 100 |
| CC(=O)OC1(C)C=CC(=O)C=C1 | > 100 |
| COc1cc(OC)c2c(=O)c(OC)c(-c3ccc4c(c3)OCO4)oc2c1 | > 100 |
| CC1(C)CC(=O)C(/C=N/c2nc(-c3ccccc3)cs2)=C(O)C1 | > 100 |
| NC(N)=N/N=C/c1c(-c2cccc([N+](=O)[O-])c2)nc2n1CCS2 | 48 |
| Cn1c(=O)c2[nH]c(CCCCC(=O)O)nc2n(C)c1=O | > 100 |
| N#Cc1nc(C2=C(Cl)c3ccccc3OC2)[nH]c1C#N | 61.8 |
| O=C1C=CC=C/C1=C1\N=C(c2ccccc2OCC(=O)c2ccc(Br)cc2)SS1 | > 100 |
| Cc1ccc(-c2c3nc(c(-c4ccc(C)cc4)c4ccc([nH]4)c(-c4ccc(OCC5COC(C)(C)O5)cc4)c4nc(c(-c5ccc(C)cc5)c5ccc2[nH]5)C=C4)C=C3)cc1 (stereo unspecified) | > 31.6 |
| COc1ccc(CCN2CCN(CCc3ccc(OC)cc3)CC2)cc1 | > 100 |
| CCn1c2ccccc2n2c(=O)c3c(c(C#N)c12)CCCC3 | > 100 |
| c1ccc(CSP234N5CCN2CCN3CCN4CC5)c(CSP234N5CCN2CCN3CCN4CC5)c1 | > 100 |
| O=c1[nH]c(Nc2nc3ccccc3[nH]2)nc2c1CCC2 | > 100 |
| Cc1nn(C(=O)Cc2ccccc2)c2c1C(c1ccc(N(C)C)cc1)SC(N)=N2 (stereo unspecified) | > 100 |
| CCOP(=O)(O)C1C(CO)OC(n2ccc(=O)[nH]c2=O)C1O (stereo unspecified) | > 100 |
| O=C1NCCCNCCCNCCCNC(=O)c2cccc1n2 | > 100 |
| CN(C)/C=N/S(=O)(=O)c1nn2c(C=O)c(-c3ccc(Cl)cc3)nc2s1 | 9.75 |
| COc1ccc(C2=Nn3c(nnc(Cc4ccc(Cl)cc4)c3=O)SC2)cc1 | > 100 |
| COC1(OC)CC(CO)(CNc2nc(N)nc(Cl)c2/C=N\O)C1 | > 100 |
| CCOC(=O)C(Cc1cn(S(=O)(=O)c2ccccc2)c2ccccc12)(NC(C)=O)C(=O)OCC | > 100 |
| Cc1ccc2c(c1)C1(C)OC(C=CC1=O)O2 (stereo unspecified) | 8.15 |

System: HT29 colon
Assay: DTP human tumour cell line panel, 48 h

| Structure (SMILES) | TGI [µM] |
| --- | --- |
| O=c1c2cc(S(=O)(=O)O)ccc2nc(COc2ccc(Oc3ccc(Cl)cc3Cl)cc2)n1-c1ccc(Cl)cc1Oc1c(Cl)cccc1Cl | 39.9 |
| C=C(CC[C@@H](C)[C@H]1CC[C@@]2(C)C3=C(CC[C@]12C)[C@@]1(C)CC[C@H](O)[C@@H](C)C1CC3)C(C)C (stereo partly specified) | 1.97 |
| CC(=O)OCCOCn1cnc2c(Cl)nc(Cl)nc21 | 32.9 |
| O=C1O/C(=C(/Cl)c2cccc3ccccc23)c2ccccc21 | > 100 |
| COc1ccc(N2C(=O)c3cc(C)cnc3S2(=O)=O)cc1 | > 100 |
| CC(=O)OC1(C)C=CC(=O)C=C1 | > 100 |
| COc1cc(OC)c2c(=O)c(OC)c(-c3ccc4c(c3)OCO4)oc2c1 | > 100 |
| CC1(C)CC(=O)C(/C=N/c2nc(-c3ccccc3)cs2)=C(O)C1 | > 100 |
| NC(N)=N/N=C/c1c(-c2cccc([N+](=O)[O-])c2)nc2n1CCS2 | 32.7 |
| Cn1c(=O)c2[nH]c(CCCCC(=O)O)nc2n(C)c1=O | > 100 |
| N#Cc1nc(C2=C(Cl)c3ccccc3OC2)[nH]c1C#N | 41.5 |
| O=C1C=CC=C/C1=C1\N=C(c2ccccc2OCC(=O)c2ccc(Br)cc2)SS1 | > 100 |
| Cc1ccc(-c2c3nc(c(-c4ccc(C)cc4)c4ccc([nH]4)c(-c4ccc(OCC5COC(C)(C)O5)cc4)c4nc(c(-c5ccc(C)cc5)c5ccc2[nH]5)C=C4)C=C3)cc1 (stereo unspecified) | > 31.6 |
| N#Cc1c(-c2ccccc2)cc(Nc2cccc(C(F)(F)F)c2)n2c1nc1ccccc12 | 4.6 |
| COc1ccc(CCN2CCN(CCc3ccc(OC)cc3)CC2)cc1 | > 100 |
| CCn1c2ccccc2n2c(=O)c3c(c(C#N)c12)CCCC3 | > 100 |
| c1ccc(CSP234N5CCN2CCN3CCN4CC5)c(CSP234N5CCN2CCN3CCN4CC5)c1 | > 100 |
| O=c1[nH]c(Nc2nc3ccccc3[nH]2)nc2c1CCC2 | > 100 |
| Cc1nn(C(=O)Cc2ccccc2)c2c1C(c1ccc(N(C)C)cc1)SC(N)=N2 (stereo unspecified) | > 100 |
| CCOP(=O)(O)C1C(CO)OC(n2ccc(=O)[nH]c2=O)C1O (stereo unspecified) | > 100 |
| NC(=S)Nc1ccc(S(=O)(=O)Nc2ccc(S(N)(=O)=O)cc2)cc1 | > 100 |
| O=C1NCCCNCCCNCCCNC(=O)c2cccc1n2 | > 100 |
| CSC1=N/C(=C\c2ccccc2)C(=O)N1CN1CCCCC1 | 90.7 |
